According to paper PMC9616851, “Structural mechanism of SGLT1 inhibitors” (Nature Communications, 2022):

Target: T1, hSGLT1 (Homo sapiens, UniProt P13866)
T1 construct: gene SLC5A1; hSGLT1GFP-MAP17nb: GFP fused between Q581 and E582 of hSGLT1; anti-GFP nanobody fused after E57 of MAP17 (1-57); in nanodisc; with MAP17
T1 sequence (P13866 1-581): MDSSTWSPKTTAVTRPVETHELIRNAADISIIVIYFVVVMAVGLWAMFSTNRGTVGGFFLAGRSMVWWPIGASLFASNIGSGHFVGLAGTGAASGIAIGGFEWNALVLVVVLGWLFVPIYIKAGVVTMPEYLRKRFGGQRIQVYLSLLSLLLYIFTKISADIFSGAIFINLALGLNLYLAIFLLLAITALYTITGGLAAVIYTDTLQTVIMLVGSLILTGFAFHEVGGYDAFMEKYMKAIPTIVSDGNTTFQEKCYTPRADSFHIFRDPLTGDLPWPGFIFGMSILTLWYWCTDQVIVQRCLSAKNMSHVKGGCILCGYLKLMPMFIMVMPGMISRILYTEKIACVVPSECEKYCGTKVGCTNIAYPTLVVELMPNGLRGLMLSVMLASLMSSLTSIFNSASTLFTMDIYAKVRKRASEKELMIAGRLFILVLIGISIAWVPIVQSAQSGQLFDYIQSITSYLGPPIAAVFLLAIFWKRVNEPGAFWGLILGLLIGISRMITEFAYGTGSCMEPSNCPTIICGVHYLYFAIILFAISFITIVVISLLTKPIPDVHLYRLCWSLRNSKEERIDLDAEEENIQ
T1 sequence (P13866 582-664): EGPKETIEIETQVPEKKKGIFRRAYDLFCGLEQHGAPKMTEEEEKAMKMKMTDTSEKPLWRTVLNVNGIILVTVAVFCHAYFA
T1 sequence (Q13113 1-57 partner): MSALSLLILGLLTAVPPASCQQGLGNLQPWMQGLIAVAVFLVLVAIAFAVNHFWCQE
Experiment: cryo-EM structure at […] Å; 1-NBD-glucose uptake inhibition in cells (IC50 […] for this construct, […] for non-tagged hSGLT1)
Format: cell-based

IC50: 2.3 nM
SMILES: CS[C@H]1O[C@@H](c2ccc(C)c(Cc3ccc(CCCC(=O)NC(C)(C)C(=O)NCCN(C)C)cc3)c2)[C@H](O)[C@@H](O)[C@@H]1O [LX2761]
